Drawing on patent US20240307382A1, “MODULATORS OF THE INTEGRATED STRESS PATHWAY” (Calico Life Sciences LLC, priority 2017, published 2024), this text covers EC50 for 23 compounds.

The structures appear in SMILES notation.

This assay has as its system HEK293T cells carrying the ATF4 luciferase reporter. As to the kind of experiment: ATF4-Luc assay (ATF4 luciferase reporter, tunicamycin-treated cells). The assay is classed as cell-based. The settings on record: Homo sapiens, HEK-293T, 1 μg/mL tunicamycin, 7 hours. In a few lines:
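A stable HEK293T reporter line was made by placing the full-length human ATF4 5′-UTR ahead of a firefly luciferase sequence without its start methionine, delivered by retroviral transduction and puromycin selection. Cells were seeded at 30,000 per well in polylysine-coated 384-well plates, exposed next day to 1 μg/mL tunicamycin plus compound for 7 hours, and luminescence was read with One Glo.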
Background: A reporter such as luciferase makes a cellular process visible.
As usually defined, the EC50 is the concentration at which the effect is half-maximal. Regarding `O=C(COc1ccc(OC(F)(F)F)cc1)NC12CCC(NC(=O)c3cccnc3CO)(CC1)C[C@@H]2O` [Compound 1087, 2-(hydroxymethyl)-N-[(3S)-3-hydroxy-4-{2-[4-(trifluoromethoxy)phenoxy]acetamido}bicyclo[2.2.2]octan-1-yl]pyridine-3-carboxamide], the EC50 is over 2000 nM. For `CN(C)C(=O)c1cccnc1C(=O)NC12CC(NC(=O)COc3ccc(Cl)c(F)c3)(C1)C2` [Compound 1088, N^2-{3-[2-(4-chloro-3-fluorophenoxy)acetamido]bicyclo[1.1.1]pentan-1-yl}-N^3,N^3-dimethylpyridine-2,3-dicarboxamide], the EC50 fell in the range of 1000 to 2000 nM. The result for `O=C(COc1ccc(Cl)c(F)c1)NC12CC(NC(=O)c3ccc(Cl)c(O)c3)(C1)C2` [Compound 1089, 4-chloro-N-{3-[2-(4-chloro-3-fluorophenoxy)acetamido]bicyclo[1.1.1]pentan-1-yl}-3-hydroxybenzamide] reads 50 to 250 nM; that for `COCc1ccc(C(=O)NC23CC(NC(=O)COc4ccc(Cl)c(F)c4)(C2)C3)cn1` [Compound 1090, N-{3-[2-(4-chloro-3-fluorophenoxy)acetamido]bicyclo[1.1.1]pentan-1-yl}-6-(methoxymethyl)pyridine-3-carboxamide], 250 to 1000 nM; that for `O=C(COc1ccc(Cl)c(F)c1)NC12CC(NC(=O)c3ncccc3CO)(C1)C2` [Compound 1091, N-{3-[2-(4-chloro-3-fluorophenoxy)acetamido]bicyclo[1.1.1]pentan-1-yl}-3-(hydroxymethyl)pyridine-2-carboxamide], 250 to 1000 nM.

Regarding `COc1cccnc1C(=O)NC12CC(NC(=O)COc3ccc(Cl)c(F)c3)(C1)C2` [Compound 1092, N-{3-[2-(4-chloro-3-fluorophenoxy)acetamido]bicyclo[1.1.1]pentan-1-yl}-3-methoxypyridine-2-carboxamide], the EC50 is over 2000 nM.

Turning to `O=C(COc1ccc(Cl)c(F)c1)NC12CC(NC(=O)c3ccc4c(n3)CCCC4)(C1)C2` [Compound 1093, N-{3-[2-(4-chloro-3-fluorophenoxy)acetamido]bicyclo[1.1.1]pentan-1-yl]-5,6,7,8-tetrahydroquinoline-2-carboxamide], the EC50 is 50 to 250 nM. The result for `O=C(COc1ccc(C(F)(F)F)cc1)NC12CCC(NC(=O)c3cc(C(F)F)no3)(CC1)C[C@@H]2O` [Compound 1094, 3-(difluoromethyl)-N-[(3S)-3-hydroxy-4-{2-[4-(trifluoromethyl)phenoxy]acetamido}bicyclo[2.2.2]octan-1-yl]-1,2-oxazole-5-carboxamide] reads 50 to 250 nM.

For the compound `O=C(COc1ccc2c(c1)OC(F)(F)O2)NC12CCC(NC(=O)c3cc(C(F)F)no3)(CC1)C[C@@H]2O` [Compound 1095, N-[(3S)-4-{2-[(2,2-difluoro-2H-1,3-benzodioxol-5-yl)oxy]acetamido}-3-hydroxybicyclo[2.2.2]octan-1-yl]-3-(difluoromethyl)-1,2-oxazole-5-carboxamide], the EC50 was in the range of 50 to 250 nM.

Turning to `O=C(COc1ccc(Cl)c(C(F)(F)F)c1)NC12CCC(NC(=O)c3cc(C(F)F)no3)(CC1)C[C@@H]2O` [Compound 1096, N-[(3S)-4-{2-[4-chloro-3-(trifluoromethyl)phenoxy]acetamido}-3-hydroxybicyclo[2.2.2]octan-1-yl]-3-(difluoromethyl)-1,2-oxazole-5-carboxamide], the EC50 was under 50 nM. The result for `Cc1ccc(OCC(=O)NC23CCC(NC(=O)c4cc(C(F)F)no4)(CC2)C[C@@H]3O)cc1C` [Compound 1097, 3-(difluoromethyl)-N-{(3S)-4-[2-(3,4-dimethylphenoxy)acetamido]-3-hydroxybicyclo[2.2.2]octan-1-yl}-1,2-oxazole-5-carboxamide] reads 50 to 250 nM. To `Cc1ccc(OCC(=O)NC23CCC(NC(=O)c4cc(C(F)F)no4)(CC2)C[C@@H]3O)cc1` [Compound 1098, 3-(difluoromethyl)-N-{(3S)-3-hydroxy-4-[2-(4-methylphenoxy)acetamido]bicyclo[2.2.2]octan-1-yl}-1,2-oxazole-5-carboxamide] belongs 50 to 250 nM; to `O=C(COc1ccc(F)cc1)NC12CCC(NC(=O)c3cc(C(F)F)no3)(CC1)C[C@@H]2O` [Compound 1099, 3-(difluoromethyl)-N-{(3S)-4-[2-(4-fluorophenoxy)acetamido]-3-hydroxybicyclo[2.2.2]octan-1-yl}-1,2-oxazole-5-carboxamide], 50 to 250 nM. As for `O=C(COc1ccc(F)c(F)c1)NC12CCC(NC(=O)c3cc(C(F)F)no3)(CC1)C[C@@H]2O` [Compound 1100, 3-(difluoromethyl)-N-{(3S)-4-[2-(3,4-difluorophenoxy)acetamido]-3-hydroxybicyclo[2.2.2]octan-1-yl}-1,2-oxazole-5-carboxamide], the EC50 was in the range of 50 to 250 nM. For the compound `Cc1cc(OCC(=O)NC23CCC(NC(=O)c4cc(C(F)F)no4)(CC2)C[C@@H]3O)ccc1Cl` [Compound 1101, N-{(3S)-4-[2-(4-chloro-3-methylphenoxy)acetamido]-3-hydroxybicyclo[2.2.2]octan-1-yl}-3-(difluoromethyl)-1,2-oxazole-5-carboxamide], the EC50 was under 50 nM.

For the compound `O=C(COc1ccc(Cl)cc1)NC12CCC(NC(=O)c3cc(C(F)F)no3)(CC1)C[C@@H]2O` [Compound 1102, N-{(3S)4-[2-(4-chlorophenoxy)acetamido]-3-hydroxybicyclo[2.2.2]octan-1-yl}-3-(difluoromethyl)-1,2-oxazole-5-carboxamide], the EC50 was under 50 nM. `O=C(COc1ccc(Cl)c(Cl)c1)NC12CCC(NC(=O)c3cnc(C(F)F)o3)(CC1)C[C@@H]2O` [Compound 1103, N-{(3S)-4-[2-(3,4-dichlorophenoxy)acetamido]-3-hydroxybicyclo[2.2.2]octan-1-yl}-2-(difluoromethyl)-1,3-oxazole-5-carboxamide]: the EC50 is under 50 nM.

With `O=C(COc1ccc(Cl)c(F)c1)NC12CCC(NC(=O)c3cnc(C(F)F)o3)(CC1)C[C@@H]2O` [Compound 1104, N-{(3S)-4-[2-(4-chloro-3-fluorophenoxy)acetamido]-3-hydroxybicyclo[2.2.2]octan-1-yl}-2-(difluoromethyl)-1,3-oxazole-5-carboxamide], the EC50 is under 50 nM. `O=C(COc1ccc(Cl)c(F)c1)NC12CCC(NC(=O)c3cc(CO)ccn3)(CC1)[C@@H](O)C2` [Compound 1105, N-{(2S)-4-[2-(4-chloro-3-fluorophenoxy)acetamido]-2-hydroxybicyclo[2.2.2]octan-1-yl}-4-(hydroxymethyl)pyridine-2-carboxamide]: the EC50 is under 50 nM. For `CCc1ncc(C(=O)NC23CCC(NC(=O)COc4ccc(Cl)c(F)c4)(CC2)C[C@@H]3O)o1` [Compound 1106, N-{(2S)-4-[2-(4-chloro-3-fluorophenoxy)acetamido]-2-hydroxybicyclo[2.2.2]octan-1-yl}-2-ethyl-1,3-oxazole-5-carboxamide], the EC50 was under 50 nM. Turning to `Cc1nn(C)cc1C(=O)NC12CCC(NC(=O)COc3ccc(Cl)c(F)c3)(CC1)C[C@@H]2O` [Compound 1107, N-{(2S)-4-[2-(4-chloro-3-fluorophenoxy)acetamido]-2-hydroxybicyclo[2.2.2]octan-1-yl}-1,3-dimethyl-1H-pyrazole-4-carboxamide], the EC50 was over 2000 nM.

As for `Cc1nn(C)cc1C(=O)NC12CCC(NC(=O)COc3ccc(Cl)c(F)c3)(CC1)[C@@H](O)C2` [Compound 1108, N-{(3S)-4-[2-(4-chloro-3-fluorophenoxy)acetamido]-3-hydroxybicyclo[2.2.2]octan-1-yl}-1,3-dimethyl-1H-pyrazole-4-carboxamide], the EC50 lay within 50 to 250 nM. To `O=C(COc1ccc(Cl)c(F)c1)NC12CCC(NC(=O)c3cc4cc(Cl)ccc4o3)(CC1)[C@@H](O)C2` [Compound 1109, 5-chloro-N-{(2S)-4-[2-(4-chloro-3-fluorophenoxy)acetamido]-2-hydroxybicyclo[2.2.2]octan-1-yl}-1-benzofuran-2-carboxamide] belongs under 50 nM.
